Data set [1] has as its system other pathogenic microorganisms. Set-up: method as in PMID 32061963, PMID 36013649. The conditions noted are these: cited from earlier work.
Data set [2] concerns Mycobacterium strains. Set-up: method as in PMID 32061963, PMID 36013649. The settings on record: cited from earlier work.
The test system of data set [3] is Candida parapsilosis ATCC 22019. Briefly: Antifungal microdilution broth method. The settings on record: Lodderomyces parapsilosis, ATCC22019; Mueller–Hinton broth with 2% glucose; read-out: MIC C. parapsilosis ATCC 22019. It counts as cell-based. How it is done:
(§1) The antibacterial and antifungal activities of compounds 4–9 were screened by the microdilution broth method using Mueller–Hinton broth for the growth of bacteria and Mueller–Hinton broth with 2% glucose for the growth of fungi. The antimicrobial assays were carried out following a previous study. The MICs of the aforementioned derivatives were evaluated for the panel of reference microorganisms from the ATCC (American Type Culture Collection), including Gram-positive bacteria (Staphylococcus aureus ATCC 25923, Staphylococcus epidermidis ATCC 12228, Micrococcus luteus ATCC 10240, Bacillus subtilis ATCC 6633, and Bacillus cereus ATCC 10876), Gram-negative bacteria (Escherichia coli ATCC 25922, Proteus mirabilis ATCC 12453, Klebsiella pneumoniae ATCC 13883, and Pseudomonas aeruginosa ATCC 9027), and fungi (Candida albicans ATCC 102231 and Candida parapsilosis ATCC 22019) (LGC Standards, Teddington, Middlesex, UK). Vancomycin (VAN), ciprofloxacin (CIP), and fluconazole (FCZ) were used as standard drugs for comparison. Each experiment was performed in triplicate.
A general note: In broth dilution the organism is exposed to a series of concentrations in liquid medium.

Data set [4] has as its system Candida albicans ATCC 102231. Briefly: Antifungal microdilution broth method. It counts as cell-based. The conditions noted are these: ATCC102231, Mueller–Hinton broth with 2% glucose, read-out: MIC C. albicans ATCC 102231. How it is done:
as §1

Data set [5] deals with M. tuberculosis H37Rv (standard strain). Briefly: Tuberculostatic activity, twofold serial microdilution with Alamar Blue. It counts as cell-based, Mycobacterium tuberculosis. The conditions noted are these: Mycobacterium tuberculosis, H37RV, 504 h, 21 days at 37 °C.
The test system of data set [6] is Bacillus cereus ATCC 10876. Briefly: Antibacterial microdilution broth method. The data set is classed as cell-based. How it is done:
as §1

For data set [7], the system named is Staphylococcus aureus ATCC 25923. Briefly: Antibacterial microdilution broth method. It counts as cell-based. The settings on record: Staphylococcus aureus. How it is done:
as §1

The test system of data set [8] is Micrococcus luteus ATCC 10240. Briefly: Antibacterial microdilution broth method. The data set is classed as cell-based. How it is done: as §1
Data set [9] relates to Proteus mirabilis ATCC 12453. Briefly: Antibacterial microdilution broth method. It counts as cell-based. How it is done: as §1
Data set [10] deals with Klebsiella pneumoniae ATCC 13883. Briefly: Antibacterial microdilution broth method. The data set is classed as cell-based. How it is done: as §1
Data set [11] relates to Staphylococcus epidermidis ATCC 12228. Briefly: Antibacterial microdilution broth method. The data set is classed as cell-based. The conditions noted are these: Staphylococcus epidermidis. How it is done:
as §1

Data set [12] relates to Bacillus subtilis ATCC 6633. Briefly: Antibacterial microdilution broth method. The data set is classed as cell-based. How it is done: as §1
Data set [13] deals with Pseudomonas aeruginosa ATCC 9027. Briefly: Antibacterial microdilution broth method. It counts as cell-based. How it is done:
as §1

Data set [14] deals with Escherichia coli ATCC 25922. Briefly: Antibacterial microdilution broth method. It counts as cell-based. How it is done:
as §1

Data set [15] relates to HaCaT cells. Briefly: Cytotoxic activity, MTT method. It counts as cell-based. The settings on record: Homo sapiens, 72 h, 3 days of incubation. On the technique in general: Formazan colour is commonly taken as a measure of viable cells.
The test system of data set [16] is HaCaT cells. Briefly: Cytotoxic activity, sulforhodamine B method. The conditions noted are these: for IC50: Homo sapiens, 72 h, read-out: IC50-HaCaT SULF; for cytotoxicity against noncancer cells (in words): MTT and sulforhodamine B methods together. A general note: The SRB assay estimates cell density from bound dye.
The subject of data set [17] is Gram-positive bacteria. Briefly: Antibacterial microdilution broth method, summary in text. It counts as cell-based. The conditions noted are these: read-out: MIC Gram-positive bacteria. How it is done:
as §1

[18] abbreviates: ATCC10876, Mueller–Hinton broth, read-out: MIC B. cereus ATCC 10876.
Where [19] appears, read: ATCC25923, Mueller–Hinton broth, read-out: MIC S. aureus ATCC 25923.
Setting [20] is: ATCC10240, Mueller–Hinton broth, read-out: MIC M. luteus ATCC 10240.
Where [21] appears, read: ATCC12453, Mueller–Hinton broth, read-out: MIC P. mirabilis ATCC 12453.
Where [22] appears, read: ATCC13883, Mueller–Hinton broth, read-out: MIC K. pneumoniae ATCC 13883.
Where [23] appears, read: ATCC12228, Mueller–Hinton broth, read-out: MIC S. epidermidis ATCC 12228.
Setting [24] is: ATCC6633, Mueller–Hinton broth, read-out: MIC B. subtilis ATCC 6633.
Where [25] appears, read: ATCC9027, Mueller–Hinton broth, read-out: MIC P. aeruginosa ATCC 9027.
Where [26] appears, read: ATCC25922, Mueller–Hinton broth, read-out: MIC E. coli ATCC 25922.

The values that follow come from publication PMC9822072, “Synthesis and Structure–Activity Relationship of 2,6-Disubstituted Thiosemicarbazone Derivatives of Pyridine as Potential Antituberculosis Agents” (Materials, 2023).

Each structure is given as a SMILES string. In brackets after ≈: the same amount, converted by molar mass. Read-outs that look alike come from different tables or passages of the source. Some results are limits rather than exact numbers.

Regarding `N/C(=N\NC(=S)N1CCOCC1)c1cc(-c2ccccc2)ccn1` [MKG-1b], the “MIC other pathogenic microorganisms” value in data set [1] is 0.98 to 500 µg/mL. For the same compound, the “MIC toward Mycobacterium strains” value in [2] is listed as 3.1 µg/mL (≈ 9.08 µM).
`NC(=NNC(=S)N1CCOCC1)c1cccc(Oc2ccccc2)n1` [Compound 8, N’-(Morpholine-4-Carbonothioyl)-6-Phenoxypicolinohydrazonamide]: the melting point was 131 to 134 °C. The MIC in data set [3] was above 1000 µg/mL. The MIC in data set [4] was above 1000 µg/mL. The minimum inhibitory concentration (MIC) in data set [5] came out at 8 µg/mL (≈ 22.4 µM). In data set [6] (setting [18]), the MIC is above 1000 µg/mL. In addition, the MIC in data set [7] (setting [19]) was 250 µg/mL (≈ 699 µM). The MIC in data set [8] (setting [20]) was 125 µg/mL (≈ 350 µM). In [9] (setting [21]), the MIC was above 1000 µg/mL. Moreover, the minimum inhibitory concentration (MIC) in data set [10] (setting [22]) was above 1000 µg/mL. In addition, in data set [11] (setting [23]), the MIC is 31.3 µg/mL (≈ 87.6 µM). For the same compound, the MIC in data set [12] (setting [24]) is above 1000 µg/mL. For the same compound, the MIC in data set [13] (setting [25]) is above 1000 µg/mL. The MIC in data set [14] (setting [26]) is above 1000 µg/mL. Also, in data set [15], half-maximal inhibition (IC50) was put at 0.57 µg/mL (≈ 1.59 µM). In data set [16], the half-maximal inhibitory concentration (IC50) came out at 50 µg/mL (≈ 140 µM) and the “cytotoxicity against noncancer cells (in words)” value is recorded as “inhibited cell metabolic activity while maintaining cell viability”.
On to `NC(=NNC(=S)N1CCCC1)c1cccc(N2CCCC2)n1` [Compound 5, 6-(Pyrrolidin-1-Yl)-N’-(Pyrrolidine-1-Carbonothioyl)Picolinohydrazonamide], for which the melting point fell in the range of 200 to 201 °C. Further, the MIC in data set [3] turned out to be 1000 µg/mL (≈ 3140 µM). Further, the MIC in [4] worked out at 250 µg/mL (≈ 785 µM). Besides, 2 µg/mL (≈ 6.28 µM) was the least that counted as inhibitory in [5] (MIC). The MIC in [6] (setting [18]) worked out at 7.8 µg/mL (≈ 24.5 µM). In addition, the MIC in data set [7] (setting [19]) was found to be 0.49 µg/mL (≈ 1.54 µM). The minimal inhibitory concentration (MIC) in data set [8] (setting [20]) was determined as 0.49 µg/mL (≈ 1.54 µM). Also, the MIC in [9] (setting [21]) was above 1000 µg/mL. For the same compound, the MIC in data set [10] (setting [22]) is above 1000 µg/mL. Further, the MIC in data set [11] (setting [23]) is 0.49 µg/mL (≈ 1.54 µM). Moreover, the MIC in [12] (setting [24]) came out at 0.49 µg/mL (≈ 1.54 µM). Moreover, in [13] (setting [25]), the MIC is above 1000 µg/mL. Further, in [14] (setting [26]), the MIC was above 1000 µg/mL. In [15], this compound had an IC50 above 50 µg/mL. In data set [16], the IC50 is above 50 µg/mL and the “cytotoxicity against noncancer cells (in words)” value is listed as “no cytotoxicity”. Further, the minimal inhibitory concentration (MIC) in data set [17] is 0.49 µg/mL (≈ 1.54 µM).
For `OC(Cn1cncn1)(Cn1cncn1)c1ccc(F)cc1F` [FCZ, fluconazole, reference compound], the MIC was 1.95 µg/mL (≈ 6.37 µM) in data set [3] and 0.98 µg/mL (≈ 3.2 µM) in [4].
Regarding `O=C(O)c1cn(C2CC2)c2cc(N3CCNCC3)c(F)cc2c1=O` [CIP, ciprofloxacin, reference compound], the MIC in data set [6] (setting [18]) was found to be 0.12 µg/mL (≈ 0.362 µM); in data set [7] (setting [19]), 0.49 µg/mL (≈ 1.48 µM); in [8] (setting [20]) it was 0.98 µg/mL (≈ 2.96 µM); in [11] (setting [23]) it was 0.49 µg/mL (≈ 1.48 µM); in data set [12] (setting [24]), 0.03 µg/mL (≈ 0.0905 µM).
For `CN[C@H](CC(C)C)C(=O)N[C@H]1C(=O)N[C@@H](CC(N)=O)C(=O)N[C@H]2C(=O)N[C@H]3C(=O)N[C@H](C(=O)N[C@H](C(=O)O)c4cc(O)cc(O)c4-c4cc3ccc4O)[C@H](O)c3ccc(c(Cl)c3)Oc3cc2cc(c3O[C@@H]2O[C@H](CO)[C@@H](O)[C@H](O)[C@H]2O[C@H]2C[C@](C)(N)[C@H](O)[C@H](C)O2)Oc2ccc(cc2Cl)[C@H]1O` [VAN, Vancomycin, reference compound], the MIC worked out at 0.98 µg/mL (≈ 0.676 µM) in data set [6] (ATCC10876, read-out: MIC B. cereus ATCC 10876); 0.98 µg/mL (≈ 0.676 µM) in data set [7] (ATCC25923, read-out: MIC S. aureus ATCC 25923); 0.12 µg/mL (≈ 0.0828 µM) in [8] (ATCC10240, read-out: MIC M. luteus ATCC 10240); 0.03 µg/mL (≈ 0.0207 µM) in [9] (ATCC12453, read-out: MIC P. mirabilis ATCC 12453); 0.06 µg/mL (≈ 0.0414 µM) in data set [10] (ATCC13883, read-out: MIC K. pneumoniae ATCC 13883); 0.98 µg/mL (≈ 0.676 µM) in [11] (ATCC12228, read-out: MIC S. epidermidis ATCC 12228). Moreover, the MIC in [12] (ATCC6633, read-out: MIC B. subtilis ATCC 6633) is 0.24 µg/mL (≈ 0.166 µM); in data set [13] (ATCC9027, read-out: MIC P. aeruginosa ATCC 9027) it was 0.49 µg/mL (≈ 0.338 µM); in [14] (ATCC25922, read-out: MIC E. coli ATCC 25922), 0.004 µg/mL (≈ 0.00276 µM).

The MIC is the least concentration at which growth counts as inhibited. Broadly, the melting point is the temperature, or range, at which the solid turns liquid. In general, IC50 refers to the midpoint of a concentration-inhibition curve.
